Consider eight molecules from patent publication US7078540B1, “Substituted aromatic-ring compounds, process for producing the same, and use” (Takeda Pharmaceutical Company Limited, priority 1999, dated 2006).

In assay [1] the test system is NO production by RAW264.7 cells. Description: Inhibitory activity on NO production in LPS/interferon-γ stimulated RAW264.7 cells. The assay is classed as cell-based, mouse. To be noted: LPS 5 ng/ml + interferon-γ 1 U/ml, overnight, nitrite in culture supernatant. On the procedure: Using mouse macrophage cell line, RAW264.7 as iNOS inducible cells, percent inhibition of NO production by the test compound was measured. The test compound was dissolved in N,N-dimethylformamide to 10 mM and diluted with RPMI-1640 medium to 0.1 mM. Furthermore, it was prepared with a medium to make a final concentration from 10 μM to 10 nM by diluting 10-fold, and added to the culture. The day before the experiment, the cells were prepared with RPMI-1640 medium supplemented with heat-inactivated 10% fetal calf serum to a concentration of 5×10^5 cells/ml and plated to a 96-well plate by 1×10^5 cells/0.2 ml per well. After culturing at 37° C. under 5% CO2/95% air overnight, the medium was changed to RPMI-1640 medium supplemented with heat-inactivated 1% fetal calf serum. Thereto was added the prepared test compound, and LPS and interferon-γ were added to a final concentrations of 5 ng/ml and 1 U/ml, respectively. After incubation overnight, the concentration of nitrite ion (stable metabolite of NO) in the culture supernatant was measured and used as an index of NO production. The nitrite concentration was quantitatively measured by adding 20 μg/ml 2,3-diaminonaphtalene (DAN) by 25 μl to the culture supernatant (50 μl), incubating at room temperature for 10 min, adding 0.5N NaOH (25 μl) and measuring the fluorescence at 450 nm (excitation wavelength 365 nm).

Assay [2] concerns TNF-α production by human monocyte cell line P31/FUJ. Description: Inhibitory activity on TNF-α production in P31/FUJ cells. The class given is cell-based. To be noted: PMA pretreated, LPS 100 ng/ml + interferon-γ 10 U/ml, overnight. How it is done: (§1) Using human monocyte cell line P31/FUJ (JCRB0091, establisher: Fujioka, obtained from the Human Science Research Resource Bank), the percent inhibition of cytokine production by the test compound was measured. The test compound was dissolved in N,N-dimethylformamide to 10 mM and diluted with RPMI-1640 medium to 0.1 mM. Furthermore, it was prepared with a medium to make a final concentration from 10 μM to 10 nM by diluting 10-fold, and added to the culture. The day before the experiment, the cells were prepared with RPMI-1640 medium supplemented with 10% fetal calf serum to a concentration of 2×10^6 cells/ml and plated to a 96-well plate by 2×10^5 cells/0.1 ml per well. The above-mentioned medium (0.1 ml) supplemented with 40 nM phorbol 12-myristate 13-acetate (PMA) was added and the mixture was cultured at 37° C. under 5% CO2/95% air overnight. The cells were washed with the above-mentioned medium to remove PMA and the prepared test compound was added, and LPS and interferon-γ were added to a final concentrations of 100 ng/ml and 10 U/ml, respectively. After culturing overnight, the concentration of TNF-α and IL-1β in the culture supernatant was measured. For quantitative determination of each cytokine, a quantitative determination kit by Amersham was used.

Assay [3] deals with IL-1β production by human monocyte cell line P31/FUJ. The experiment in a line: Inhibitory activity on IL-1β production in P31/FUJ cells. The assay is classed as cell-based. To be noted: PMA pretreated, LPS 100 ng/ml + interferon-γ 10 U/ml, overnight. How it is done:
as §1

For another assay, the system named is blood NOx concentration. Description: Effect against increase in blood nitrogen oxide concentration in LPS-treated mice. The assay is classed as in vivo, mouse. To be noted: female BALB/c mice, 10 mg/kg orally 1 h before LPS 10 mg/kg i.p., sera at 6 h after LPS, relative to control group. An excerpt:
When a biological defense response against infection and the like, immunopathy and the like causes NO production in the body, it is quickly metabolized into nitrous acid and nitric acid, whereby blood nitrogen oxide concentration (NOx) increases. Using test animals, the effect of the test compound against increase in blood NOx concentration was examined.
Female BALB/c mice (7-week-old) were divided into 6–8 mice per group. For the test compound group, the test compound was suspended in 0.5% aqueous methylcellulose solution and 10 mg/kg thereof was orally administered. For the control group, a solvent was similarly administered. One hour later, LPS (10 mg/kg) was intraperitoneally administered to the test compound group and the control group. At 6 h after LPS administration, blood was drawn and nitrate ion+nitrite ion concentration in sera was measured. The nitrate ion was converted to nitrous acid ion with nitrate reductase and quantitatively measured as a total nitrite ion concentration by fluorescence method using the aforementioned DAN.

Setting [4] is: Mus musculus, RAW264.7, RAW264.7 cells.

One may read the IC50 as the concentration that gives 50% inhibition.

Take `CCOC(=O)C1=CCCCC1S(=O)(=O)Cc1ccccc1` (stereo not shown) [Compound 1, ethyl 6-(benzylsulfonyl)-1-cyclohexene-1-carboxylate]: the IC50 in assay [1] (setting [4]) was 240 nM.

As for `CCOC(=O)C1=CCCCC1S(=O)(=O)Cc1ccc(OC)cc1` (stereo not shown) [Compound 2, ethyl 6-[(4-methoxybenzyl)sulfonyl]-1-cyclohexene-1-carboxylate], the IC50 in assay [1] (setting [4]) stood at 3200 nM.

In the case of `CCOC(=O)C1=CCCCC1S(=O)(=O)Cc1ccc(F)cc1F` (stereo not shown) [Compound 3, ethyl 6-[(2,4-difluorobenzyl)sulfonyl]-1-cyclohexene-1-carboxylate], in assay [1] (setting [4]), the half-maximal inhibitory concentration (IC50) came to 47 nM.

`CCOC(=O)C1=CCCCC1S(=O)(=O)Cc1ccc(F)cc1Cl` (stereo not shown) [Compound 4, ethyl 6-[(2-chloro-4-fluorobenzyl)-sulfonyl]-1-cyclohexene-1-carboxylate]: the IC50 in assay [1] (RAW264.7 cells) is 29 nM; in assay [2] (Homo sapiens, P31-FUJ) it was 200 nM; in assay [3], 580 nM. The “Blood NOx inhibition (%)” value in the assay on blood NOx concentration was 62%.

For the molecule `CCOC(=O)C1=CCCCC1S(=O)(=O)Cc1ccc(F)cc1Cl` (stereo not drawn) [Compound 5, ethyl (−)-6-[(2-chloro-4-fluorobenzyl)sulfonyl]-1-cyclohexene-1-carboxylate], the IC50 in assay [1] (RAW264.7 cells) was found to be 1000 nM.

For `CCOC(=O)C1=CCCCC1S(=O)(=O)Cc1ccc(F)cc1Cl` (stereo not drawn) [Compound 6, ethyl (+)-6-[(2-chloro-4-fluorobenzyl)sulfonyl]-1-cyclohexene-1-carboxylate], the IC50 in assay [1] (RAW264.7 cells) stood at 9.3 nM; in assay [2] it was 150 nM; in assay [3] it was 230 nM.

Regarding `CCOC(=O)C1=CCOCC1S(=O)(=O)Nc1ccc(F)cc1F` (stereo not shown) [Compound 7, ethyl 3-[(2,4-difluorophenyl)-sulfamoyl]-3,6-dihydro-2H-pyran-4-carboxylate], the half-maximal inhibitory concentration (IC50) in assay [1] (setting [4]) is 18 nM.

As to `CCOC(=O)C1=CCOCC1S(=O)(=O)Nc1ccc(F)cc1Cl` (stereo not shown) [Compound 8, ethyl 3-[(2-chloro-4-fluorophenyl)sulfamoyl]-3,6-dihydro-2H-pyran-4-carboxylate], the IC50 stood at 3.1 nM in assay [1] (setting [4]); 20 nM in assay [2] (Homo sapiens, P31-FUJ); 11 nM in assay [3] (Homo sapiens, P31-FUJ). In the assay with blood NOx concentration, the “Blood NOx inhibition (%)” value is 80%.
